From patent publication US5545615A, “A method of inhibiting fertilization by alpha-1-antitrypsin or antithrombin III” (ZymoGenetics, Inc., priority 1994, dated 1996)

Legend:
boar acrosin [1] = assay: Spectrophotometric acrosin assay with substrate BAEE; type: biochemical
Method: The effects of alpha-1-antitrypsin on purified acrosin were measured spectrophotometrically using the acrosin substrate N-α-benzoyl-L-arginine ethyl ester (BAEE) essentially as described by Polakoski and Zaneveld (Methods in Enzymology 45 (part B): 325, 1976). Boar acrosin was combined with AAT in 0.025M Tris, pH 7.0, containing BAEE. A control sample lacked AAT. The absorbance of the reaction mixture was monitored at 253 nm.
(§1) The nature of the reaction between AAT and acrosin was examined by electrophoresis under reducing and denaturing conditions and by Western blot analysis. AAT (2 μg) and activated boar proacrosin (5 μg) were incubated in a buffer containing 0.1M Tris, pH 8.0. Acrosin activity was inhibited 48% in the BAEE assay. […] Thus, all inhibition is accounted for by the formation of a covalent complex.

boar acrosin [2] = assay: SDS-PAGE / Western blot analysis of AAT-acrosin reaction mixture; type: binding
Method: Lanes 1 and 6, proacrosin (^~ 5 ug) autoactivated to acrosin; Lanes 2 and 7, alpha-1-antrypsin (^~ 2 ug); Lanes 3 and 8, alpha-1-antitrypsin (~2 ug)+activated proacrosin (~5 ug) in 0.1M Tris, pH 8.0; Lanes 4 and 9, alpha-1-antitrypsin (^~ 2 ug)+activated proacrosin (^~ 5 ug) in 0.1M Tris, 0.05M CaCl2, pH 8.0; Lane 5, molecular weight markers.
as §1

[3] = tested on: sperm and ova of hybrid mouse strain B6D2F1; assay: In vitro fertilization assay with mouse sperm and oocytes; type: cell-based
Method: The ability of AAT to inhibit fertilization in vitro was tested using sperm and ova obtained from the hybrid mouse strain B6D2F1. This strain was chosen because a 75% to 85% in vitro fertilization rate is routine and the female mice respond well to superovulatory drugs, producing an average of 30 normal oocytes per animal.
Oocytes were collected from 3- to 4-week-old female B6D2F1 mice. The animals received 5 international units of pregnant mare's serum gonadotropin to initiate follicular growth. After 48 hours, 5 international units of human chorionic gonadotropin were given to effect ovulation. Twelve hours after the last injection, oviducts were removed and oocytes were collected by puncture of the ampullary region, allowing the release of cumulus enclosed oocytes (cumulus clots) into 0.2 ml Fraser's medium (Fraser and Drury, Biol. Reprod. 13: 513-518, 1975) under paraffin oil. To randomize oocyte distribution, all cumulus clots were collected into one dish of medium and then placed into the fertilization medium. Oocytes were collected, on average, 15 minutes before sperm addition.
Sperm were collected from the cauda epididymus of 9- to 14-week-old male B6D2F1 mice of proven fertility. Each epididymus contained approximately 40 million sperm with 70% to 80% motility. […]
After the one-hour capacitation period, the sperm were counted by hemocytometer and […] sperm cells/ml were added to 0.2 ml Fraser's, medium (free of alpha-1-antitrypsin or containing AAT at the above concentrations) containing cumulus cell-enclosed oocytes. […]
The above experiments were designed to analyze the effective inhibitory concentration of alpha-1-antitrypsin and to detect differences in fertilization rate resulting from the capacitation/acrosome reaction state of the sperm. […] Data are expressed as percent oocytes with two pronuclei and a second polar body. […]

female mice = assay: In vivo inhibition of fertilization, intravaginal cream in female mice; design: species or system mouse; conditions: individual mice 1-5; cream 100 mg AAT/20 ml, 100 μl intravaginal prior to copulation; sacrificed 12 days after copulation
Method: For in vivo testing, a cream was prepared by dissolving 100 mg of recombinant AAT in 5 ml of phosphate-buffered saline (PBS; obtained from Sigma Chemical Co.). This solution was emulsified with 15 ml of K-Y Jelly (Johnson & Johnson) to give a final AAT concentration of 100 mg/20 ml.
The cream (100 μl) was administered intravaginal to female mice using an Eppendorf pipette prior to copulation. Control females were untreated or received a control cream consisting of 100 mg bovine serum albumin in 5 ml of PBS plus 15 ml of K-Y Jelly. Copulation was confirmed in two of five BSA controls and four of five experimental mice. Mice were sacrificed 12 days after copulation and the number of fetuses was noted. Results, shown in Table 1, indicate that alpha-1-antitrypsin is an effective contraceptive agent.

human acrosin = conditions: cited from earlier work
boar acrosin [4] = conditions: cited from earlier work
acrosin = conditions: cited from earlier work
fertilization in vitro = conditions: cited from earlier work

Substance | Acrosin activity inhibited in the BAEE assay (boar acrosin [1]; AAT 2 μg + activated boar proacrosin 5 μg, 0.1M Tris, pH 8.0) [%] | inhibition of acrosin in the test system (BAEE hydrolysis, absorbance at 253 nm) (boar acrosin [1]; boar acrosin combined with AAT in 0.025M Tris, pH 7.0, containing BAEE, amount of AAT tested) | complex formation between inhibitor and enzyme (Western blot) (boar acrosin [2]; AAT 2 μg + activated boar proacrosin 5 μg, 0.1M Tris, pH 8.0, reducing and denaturing 12% SDS-PAGE) | complex formation between inhibitor and enzyme (Western blot) (boar acrosin [2]; same analysis in the presence of 0.05M CaCl2) | blocking of fertilization ([3]; AAT in both capacitation and fertilization media, all concentrations except 0.01 mM (0.05-1 mM), FIG. 4) | concentrations of AAT effective in blocking fertilization ([3]; capacitation in AAT-containing medium, fertilization in control medium, FIG. 3) | decrease of fertilization rate (percent oocytes with two pronuclei and a second polar body) ([3]; sperm capacitated in control medium, fertilization in AAT-containing medium, all concentrations tested (0.01-1 mM), control fertilization rate 77%, FIG. 2) | Number of Fetuses (female mice) | inhibition of human acrosin in vitro (human acrosin) | inhibition of boar acrosin in vitro (boar acrosin [4]) | effect on acrosin activity (acrosin) | effect on fertilization in vitro (fertilization in vitro)
alpha-1-antitrypsin [AAT] | 48 | complete inhibition | formation of a high molecular weight complex | essentially identical results | effective in blocking fertilization | greater than 0.2 mM | about 50% | 0 | inhibit | inhibit | – | –
soybean trypsin inhibitor | – | – | – | – | – | – | – | – | – | – | block acrosin activity | prevent fertilization in vitro
